{
  "source": "patent US12590309B2",
  "about": "“Reprogramming of lipid metabolism to inhibit T cell senescence and enhance tumor immunotherapy” (Saint Louis University, priority 2019, dated 2026)",
  "key": {"[1]": {"tested_on": "B16F10 tumor", "test": "B16F10 melanoma, Pmel-1 T cell adoptive transfer therapy model in C57BL/6 mice", "settings": "Pmel-1 T cells pretreated with ATK 0.5 μM 2 hours; ATK 10 mg·kg-1/mouse i.p. day 1, 4, 7, 10"}, "[2]": {"tested_on": "naïve CD4+ and CD8+ T cells co-cultured with nTreg cells", "test": "SA-β-gal staining, T cell senescence induced by Treg cells", "type": "cell-based, human", "settings": "for senescence induction in T cells co-cultured with nTreg cells, lipid supplement: naïve CD4+ T cells, lipids 5 μM or 10 μM, 3 days", "procedure": "Senescence associated β-galactosidase staining. Senescence associated β-galactosidase (SA-β-gal) activity in senescent T cells was detected as the inventors previously described 23,32,33. Naive CD4+ or CD8+ T cells were labeled with CFSE (4.5 μM), and co-cultured with Treg cells at a ratio of 4:1 in anti-CD3-coated 24-well plates for 3 days. Co-cultured naïve T cells were then separated from co-cultures using FACS sorting gated on CFSE positive populations, and then stained with SA-β-Gal staining reagent. […] For some experiments, naïve T cells were pretreated with the following inhibitors and then co-cultured with Treg cells. SA-β-gal expression in the co-cultured naïve T cells was determined. These inhibitors include: ACAT inhibitor Avasimable (5 μM and 10 μM), lipase inhibitor orlistat (10 μM), and cPLA2α inhibitor MAFP (1 μM and 5 μM) (Cayman Chemical); ATM inhibitor KU55933 (10 μM, Tocris Bioscience); stat1 inhibitor MTA (5 μM), stat3 inhibitor S3I-201 (10 μM) (Sigma-Aldrich); MAPK inhibitors including U0126 (10 μM) and SB203580 (10 μM) (Calbiochemistry).\n(§1) Lipid supplement assay. Lysophosphatidylcholine (LPC, 16:0 LPC, 16:0 aLPC, and 16:0 pLPC), Phosphatidylethanolamine (PE, 16:0 lyso PE) and Phosphatidylserine (PS, 16:0 lyso PS) were purchased from the Avanti Polar Lipids, INC. C2-Ceramide was purchased from Sigma. All the lipids were dissolved in chloroform, evaporated under a gentle stream of nitrogen and then immediately dissolved in an ethanol vehicle (0.1%). Naïve CD4+ T cells were first treated with or without the lipids (5 μM or 10 μM) for 1 hour and then co-cultured with Treg cells at a ratio of 4:1 in anti-CD3-coated (2 μg/ml) plates for 3 days. The treated naïve CD4+ T cells were then performed SA-β-gal and Oil red O staining."}, "[3]": {"tested_on": "senescent T cells", "test": "Suppressive activity of senescent T cells, [3H]-thymidine proliferation assay", "type": "cell-based, human", "settings": "data not shown", "experimental": "Functional proliferation assay. Proliferation assays were performed using a [^3H]-thymidine incorporation assay, as the inventors previously described (Liu et al., 2018; Ye et al., 2014; 2012; Peng et al., 2005; 2007). Naïve CD4+ T cells (1×10^5/well) purified from healthy donors were co-cultured with Treg-treated T cells at a ratio of 10:1 in 200 μl of T cell assay medium containing 2% human AB. After 56 hours of culture, [3H]-thymidine was added at a final concentration of 1 μCi/well, followed by an additional 16 hours of culture. The incorporation of [^3H]-thymidine was measured with a liquid scintillation counter."}, "[4]": {"tested_on": "senescent T cells", "test": "Inflammatory cytokine mRNA by real-time qPCR in responder/senescent T cells", "type": "cell-based, human", "procedure": "(§2) Reverse-transcription quantitative PCR analysis. Total RNA was extracted from T cells using Trizol reagent (Invitrogen), and cDNA was transcribed using a SuperScript II RT kit (Invitrogen), both according to manufacturers' instructions. Expression levels of each gene were determined by reverse-transcription PCR using specific primers, and mRNA levels in each sample were normalized to the relative quantity of the housekeeping GAPDH or β-actin gene expression. All experiments were performed in triplicate."}, "[5]": {"tested_on": "naïve T cells", "test": "Oil-Red O staining of naïve T cells cultured with the substance alone", "type": "cell-based, human", "procedure": "(§3) Oil-Red O staining. The treated T cells were washed in PBS (pH 7.2), fixed with 4% formaldehyde for 30 minutes, and treated with 60% isopropanol for 2-5 minutes. Cells were further stained with freshly prepared Oil-Red O staining solution (Sigma-Aldrich) in isopropanol (60%) for 5 minutes, followed by quick rinse with isopropanol (60%). The stained cells were then washed with H2O thoroughly and lipid droplets in T cells were evaluated using a light microscope."}, "[6]": {"tested_on": "naïve T cells", "test": "SA-β-gal staining of naïve T cells cultured with the substance alone", "type": "cell-based, human", "procedure": "Senescence associated β-galactosidase staining. […] Naive CD4+ or CD8+ T cells were labeled with CFSE (4.5 μM), and co-cultured with Treg cells at a ratio of 4:1 in anti-CD3-coated 24-well plates for 3 days. Co-cultured naïve T cells were then separated from co-cultures using FACS sorting gated on CFSE positive populations, and then stained with SA-β-Gal staining reagent. For tumor-induced T cell senescence, anti-CD3 activated naïve CD4+ T cells or CD8+ T cells were co-cultured with or without tumor cells at ratio of 1:1 for 1 day and then separated and cultured for additional 3 days. For some experiments, naïve T cells were pretreated with the following inhibitors and then co-cultured with Treg cells. SA-β-gal expression in the co-cultured naïve T cells was determined. These inhibitors include: ACAT inhibitor Avasimable (5 μM and 10 μM), lipase inhibitor orlistat (10 μM), and cPLA2α inhibitor MAFP (1 μM and 5 μM) (Cayman Chemical); ATM inhibitor KU55933 (10 μM, Tocris Bioscience); stat1 inhibitor MTA (5 μM), stat3 inhibitor S3I-201 (10 μM) (Sigma-Aldrich); MAPK inhibitors including U0126 (10 μM) and SB203580 (10 μM) (Calbiochemistry)."}, "[7]": {"tested_on": "naïve CD8+ T cells co-cultured with nTreg cells", "test": "Lipidomics (ESI-MS/MS) of Treg-induced senescent T cells", "type": "cell-based, human", "procedure": "Lipidomics analysis. Lipids from T cells were extracted by the method of Bligh and Dyer in the presence of internal standards including eicosanoic acid, 1-0-heptadecanoyl-LPC, dieicosanoyl-PC, ditetradecanoyl-PE, ditetradecanoyl-PS, N-heptadecanoyl-Cer, and cholesteryl heptadecanoate (Bligh and Dyer, 1959). Extracted lipids were resuspended in methanol/chloroform (2:1, by vol.) and analyzed by ESI-MS in the direct infusion mode at a flow rate of 3 μl/min using a Thermo Electron TSQ Quantrum Ultra® instrument. Samples were analyzed in both the positive and negative ion mode using a shotgun lipidomics approach (Han and Gross, 2005). For LPC, neutral loss (NL) scanning of 59.1 was monitored in the positive ion mode for sodiated molecular ions. NL scanning of 368.5 was performed for sodiated CE molecular species in the positive ion mode (Bowden et al., 2011). PE was derivatized to fMOC-PE species and monitored in negative ion mode using NL scanning of 222.2. Neutral loss scanning for Cer (NL 256.2), PC (NL50) and PS (NL 87) was performed in the negative ion mode (Han and Gross, 2005). Fatty acids were converted to pentafluorobenzyl esters and quantified using negative ion chemical ionization detection and gas chromatography (Quehenberger et al., 2010). Spectra were averaged over 3-5 min and processed utilizing Xcalibur® software (Thermo Electron). Individual molecular species were quantified by comparing the ion intensity of individual molecular species to that of the appropriate internal standards following corrections for type I and type II 13C isotope effects (Han and Gross, 2005). Additional corrections were made from response curves for CE molecular species (Bowden et al., 2011). Each sample was normalized to cell number, and values are expressed per million cells."}, "[8]": {"tested_on": "naïve CD4+ and CD8+ T cells co-cultured with nTreg cells", "test": "Oil-Red O staining, LD formation in T cells co-cultured with Treg cells", "type": "cell-based, human", "procedure": "as §1, §3"}, "[9]": {"tested_on": "cPLA2α", "test": "cPLA2α, p21 and p53 expression in Treg-treated T cells (western blot, qPCR, flow cytometry)", "type": "cell-based, human", "procedure": "Flow cytometry analysis. The expression markers on T cells were determined by flow cytometry analysis after surface staining or intracellular staining with anti-human specific antibodies conjugated with PE or Alexa Flour488. The human antibodies included: anti-CD27, anti-CD28, anti-phospho-ERK (Thr202/Tyr204), anti-phospho-p38 (Thr180/Tyr182), anti-phospho-STAT1 (Tyr701), anti-phospho-STAT3 (Tyr705 or Ser727), anti-phospho-ATM, anti-phospho-H2AX, anti-phospho-CHK2, anti-phospho-53BP1, and anti-cPLA2α, which were purchased from BD Biosciences, Biolegend, or Cell Signaling Technology. For Bodipy 493/503 staining (Thermo Fisher Scientific), T cells were incubated with Bodipy 493/503 (1 μg/ml) at room temperature for 15 minutes. All stained cells were analyzed on a LSR II cytometer (BD Bioscience) and data analyzed with FlowJo software (Tree Star).\nWestern-blotting analysis. CFSE-labeled naïve CD4+ or CD8+ T cells were co-cultured with Treg or control T cells at a ratio of 4:1 in the anti-CD3 antibody-precoated plates (2 μg/ml) for 3 days. In some experiments, T cells were pretreated with the cPLA2α inhibitor MAFP (5 M) for 24 hours, and then co-cultured with Treg cells. Treated T cells were then sorted by FACS gating on CFSE positive T cells. Whole cell lysates of the purified CD4+ T cells were prepared for western blot analyses. Western blots were developed with the Chemiluminescent Substrate (KPL, Maryland). The rabbit polyclonal antibodies used in the western blot analyses are as following: anti-cPLA2α, anti-P53, anti-P21, and anti-GAPDH. All antibodies were purchased from the Cell Signaling Technology.\nas §2"}, "[10]": {"tested_on": "MAPK and STAT1/STAT3 signaling", "test": "Phosphorylation of p38, ERK, STAT1 and STAT3 by flow cytometry in Treg-treated CD4+ T cells", "type": "cell-based, human", "settings": "pretreated 24 hours (KU55933 10 μM; MAFP 5 μM), Treg co-culture 3 days"}, "[11]": {"settings": "naïve CD4+ and CD8+ T cells pretreated with inhibitor 24 hours, co-cultured with nTreg 4:1, anti-CD3, 3 days"}, "[12]": {"settings": "anti-CD3 coated plates, 3 days, no Treg cells"}, "[13]": {"settings": "CD8+ T cells pretreated with inhibitor 24 hours, nTreg co-culture 3 days"}, "[14]": {"settings": "naïve CD4+ and CD8+ T cells pretreated with inhibitor 24 hours, co-cultured with nTreg 4:1, 3 days"}, "[15]": {"settings": "pretreated with inhibitor 24 hours, Treg co-culture"}},
  "note": "Read-outs that look alike come from different tables or passages of the source.",
  "data": [
    {"molecule": "CCCCC/C=C\\C/C=C\\C/C=C\\C/C=C\\CCCC(=O)C(F)(F)F", "note": "[ATK]", "values": [
      {"measurement": "anti-tumor immunity and tumor immunotherapy, ATK", "setting": "[1]", "result": "enhances anti-tumor immunity and tumor immunotherapy in vivo"},
      {"measurement": "senescent (SA-β-gal+) T cell populations induced by Treg cells", "setting": "[2]; [11]", "result": "can prevent T cell senescence"}
    ]},
    {"molecule": "O=C(O)C(=O)CBr", "note": "[3-BrPA]", "values": [
      {"measurement": "suppressive activity of senescent T cells on proliferation of effector T cells", "setting": "[3]", "result": "inhibited their suppressive activity"},
      {"measurement": "secretion of pro-inflammatory cytokines by senescent T cells", "setting": "[4]", "result": "significantly decreased"}
    ]},
    {"molecule": "CSC[C@H]1O[C@@H](n2cnc3c(N)ncnc32)[C@H](O)[C@@H]1O", "note": "[MTA]", "values": [
      {"measurement": "LD formation (Oil-red O) in naïve T cells, substance alone", "setting": "[5]; [12]", "result": "did not promote cell senescence and LD formation"},
      {"measurement": "cell senescence (SA-β-gal) in naïve T cells, substance alone", "setting": "[6]; [12]", "result": "did not promote cell senescence"},
      {"measurement": "senescent (SA-β-gal+) T cell populations induced by Treg cells", "setting": "[2]; [11]", "result": "prevented senescence induction"},
      {"measurement": "CE and PC in senescent T cells", "setting": "[7]; [13]", "result": "significantly prevented the Treg-induced up-regulation of CE and down-regulation of PC"},
      {"measurement": "LD formation (Oil red O+ T cell populations) induced by Treg cells", "setting": "[8]; [14]", "result": "significantly decreased Oil red O+ T cell populations"},
      {"measurement": "cPLA2α expression in Treg-induced senescent T cells", "setting": "[9]; [15]", "result": "dramatically suppressed the enhanced cPLA2α expression"}
    ]},
    {"molecule": "CCCCCCCCCCCCC/C=C/[C@@H](O)[C@H](CO)NC(C)=O", "note": "[Cer, C2-Ceramide]", "values": [
      {"measurement": "senescence induction in T cells co-cultured with nTreg cells, lipid supplement", "setting": "[2]", "result": "markedly prevented senescence induction"}
    ]},
    {"molecule": "Phosphatidylserine [PS]", "values": [
      {"measurement": "senescence induction in T cells co-cultured with nTreg cells, lipid supplement", "setting": "[2]", "result": "markedly prevented senescence induction"}
    ]},
    {"molecule": "Phosphatidylethanolamine [PE]", "values": [
      {"measurement": "senescence induction in T cells co-cultured with nTreg cells, lipid supplement", "setting": "[2]", "result": "markedly prevented senescence induction"}
    ]},
    {"molecule": "CC(C)c1cc(C(C)C)c(CC(=O)NS(=O)(=O)Oc2c(C(C)C)cccc2C(C)C)c(C(C)C)c1", "note": "[avasimible]", "values": [
      {"measurement": "LD formation (Oil-red O) in naïve T cells, substance alone", "setting": "[5]; [12]", "result": "does not induce cell senescence and LD formation"},
      {"measurement": "cell senescence (SA-β-gal) in naïve T cells, substance alone", "setting": "[6]; [12]", "result": "does not induce cell senescence"},
      {"measurement": "senescent (SA-β-gal+) T cell populations induced by Treg cells", "setting": "[2]; [11]", "result": "dramatically reduced"},
      {"measurement": "total and sub-fractions of CE in senescent T cells", "setting": "[7]; CD8+ T cells pretreated 24 hours, nTreg co-culture 3 days", "result": "did not significantly down-regulate total and sub-fractions of CE"},
      {"measurement": "LD formation (Oil red O+ T cell populations) induced by Treg cells", "setting": "[8]; [14]", "result": "dramatically reduced"}
    ]},
    {"molecule": "N#CC(=C(/N)Sc1ccccc1N)/C(C#N)=C(\\N)Sc1ccccc1N", "note": "[U0126]", "values": [
      {"measurement": "LD formation (Oil-red O) in naïve T cells, substance alone", "setting": "[5]", "result": "did not promote cell senescence and LD formation"},
      {"measurement": "cell senescence (SA-β-gal) in naïve T cells, substance alone", "setting": "[6]", "result": "did not promote cell senescence"},
      {"measurement": "senescent (SA-β-gal+) T cell populations induced by Treg cells", "setting": "[2]", "result": "prevented senescence induction"},
      {"measurement": "CE and PC in senescent T cells", "setting": "[7]", "result": "significantly prevented the Treg-induced up-regulation of CE and down-regulation of PC"},
      {"measurement": "LD formation (Oil red O+ T cell populations) induced by Treg cells", "setting": "[8]", "result": "significantly decreased Oil red O+ T cell populations"},
      {"measurement": "cPLA2α expression in Treg-induced senescent T cells", "setting": "[9]", "result": "dramatically suppressed the enhanced cPLA2α expression"}
    ]},
    {"molecule": "Cc1ccc(S(=O)(=O)OCC(=O)Nc2ccc(C(=O)O)c(O)c2)cc1", "note": "[S3I-201]", "values": [
      {"measurement": "LD formation (Oil-red O) in naïve T cells, substance alone", "setting": "[5]; [12]", "result": "did not promote cell senescence and LD formation"},
      {"measurement": "cell senescence (SA-β-gal) in naïve T cells, substance alone", "setting": "[6]; [12]", "result": "did not promote cell senescence"},
      {"measurement": "senescent (SA-β-gal+) T cell populations induced by Treg cells", "setting": "[2]; [11]", "result": "prevented senescence induction"},
      {"measurement": "CE and PC in senescent T cells", "setting": "[7]; [13]", "result": "significantly prevented the Treg-induced up-regulation of CE and down-regulation of PC"},
      {"measurement": "LD formation (Oil red O+ T cell populations) induced by Treg cells", "setting": "[8]; [14]", "result": "significantly decreased Oil red O+ T cell populations"},
      {"measurement": "cPLA2α expression in Treg-induced senescent T cells", "setting": "[9]; [15]", "result": "dramatically suppressed the enhanced cPLA2α expression"}
    ]},
    {"molecule": "O=c1cc(-c2cccc3c2Sc2ccccc2S3)oc(N2CCOCC2)c1", "note": "[KU55933]", "values": [
      {"measurement": "phosphorylation of p38, ERK, STAT1 and STAT3 in Treg-treated CD4+ T cells", "setting": "[10]", "result": "prevented phosphorylation of MAPKs and STAT1/STAT3"},
      {"measurement": "senescent (SA-β-gal+) T cell populations induced by Treg cells", "setting": "[2]; [11]", "result": "dramatically reduced"},
      {"measurement": "CE and FFA in senescent T cells", "setting": "[7]; CD8+ T cells pretreated with KU55933 (10 μM) 1 day, nTreg co-culture 3 days", "result": "markedly prevented Treg-induced up-regulation of CE and FFA"},
      {"measurement": "LD formation (Oil red O+ T cell populations) induced by Treg cells", "setting": "[8]; [14]", "result": "dramatically reduced"},
      {"measurement": "cPLA2α expression in Treg-induced senescent T cells", "setting": "[9]; [15]", "result": "significantly decreased both mRNA and protein expression of cPLA2α"}
    ]},
    {"molecule": "C[S+]([O-])c1ccc(-c2nc(-c3ccncc3)c(-c3ccc(F)cc3)[nH]2)cc1", "note": "(stereo not shown) [SB203580]", "values": [
      {"measurement": "LD formation (Oil-red O) in naïve T cells, substance alone", "setting": "[5]", "result": "did not promote cell senescence and LD formation"},
      {"measurement": "cell senescence (SA-β-gal) in naïve T cells, substance alone", "setting": "[6]", "result": "did not promote cell senescence"},
      {"measurement": "senescent (SA-β-gal+) T cell populations induced by Treg cells", "setting": "[2]", "result": "prevented senescence induction"},
      {"measurement": "CE and PC in senescent T cells", "setting": "[7]", "result": "significantly prevented the Treg-induced up-regulation of CE and down-regulation of PC"},
      {"measurement": "LD formation (Oil red O+ T cell populations) induced by Treg cells", "setting": "[8]", "result": "significantly decreased Oil red O+ T cell populations"},
      {"measurement": "cPLA2α expression in Treg-induced senescent T cells", "setting": "[9]", "result": "dramatically suppressed the enhanced cPLA2α expression"}
    ]},
    {"molecule": "Lysophosphatidylcholine [LPC]", "values": [
      {"measurement": "senescence induction in T cells co-cultured with nTreg cells, lipid supplement", "setting": "[2]", "result": "markedly prevented senescence induction"}
    ]},
    {"molecule": "CCCCCCCCCCC[C@@H](C[C@@H]1OC(=O)[C@H]1CCCCCC)OC(=O)[C@H](CC(C)C)NC=O", "note": "[orlistat]", "values": [
      {"measurement": "LD formation (Oil-red O) in naïve T cells, substance alone", "setting": "[5]; [12]", "result": "promoted LD formation"},
      {"measurement": "cell senescence (SA-β-gal) in naïve T cells, substance alone", "setting": "[6]; [12]", "result": "dramatically increased cell senescence"}
    ]},
    {"molecule": "O=CC[C@@H](O)[C@H](O)[C@H](O)CO", "note": "[2-DG]", "values": [
      {"measurement": "suppressive activity of senescent T cells on proliferation of effector T cells", "setting": "[3]", "result": "inhibited their suppressive activity"},
      {"measurement": "secretion of pro-inflammatory cytokines by senescent T cells", "setting": "[4]; senescent CD8+ T cells, 3-BrPA (30 μM) or 2-DG (2 mM), additional 1 day", "result": "significantly decreased"}
    ]}
  ]
}
